Here are results for 3 compounds from patent US6632807B1, “(2R,4S)-(−)-[N-(4-diethoxyphosphorylmethyl)phenyl]-1,2,4,5- tetrahydro-4-methyl-7,8-methylenedioxy-5-oxo-3-benzothiepin-2-carboxamide” (Takeda Chemical Industries, Ltd., priority 1994, dated 2003).

Data set [1] has as its system stromal cells prepared from the femoral bone marrow of a normal rat. As to the kind of experiment: Osteogenesis-promoting action: alkaline phosphatase activity in rat bone marrow stromal cells. It is filed as cell-based. Particulars: 10 to 14 days cultivation, mean ±SE, control 113.7 ± 8.1. As to the method: Using stromal cells prepared from the femoral bone marrow of a normal rat, alkaline phosphatase activity was determined as an index of osteogenesis. Specifically, stromal cells, prepared from the femoral bone marrow of a 7-week-old male Sprague-Dawley rat by the method of Maniatopoulos et al. [Cell Tissue Research, Vol. 254, p. 317 (1988)], were cultured in an α-MEM (minimum essential medium) solution containing both dexamethasone (10^−7 M) and β-glycerophosphoric acid (10^−2 M) to obtain mineralized bone-like tissue. One week later, the test compound (10^−6 M or 10^−5 M) was added to the confluent cells, followed by 10 to 14 more days of cultivation in the above culture broth. After washing with phosphate buffer, the cells were homogenized with 0.2% Nonidet P-40 and centrifuged at 3,000 rpm for 10 minutes. The resulting supernatant was assayed for alkaline phosphatase activity by the method of Lowry et al. [Journal of Biological Chemistry, Vol. 207, p. 19 (1954)]. The values obtained are given in mean ±SE in Table 1. The data were statistically analyzed by Student's t-test.

Broadly, the melting point is the temperature of the solid-liquid transition. `COP(=O)(Cc1ccc(NC(=O)[C@H]2Cc3cc4c(cc3C(=O)[C@H](C)S2)OCO4)cc1)OC` yielded a melting point of 198 to 199 °C.

`CCOP(=O)(Cc1ccc(NC(=O)[C@@H]2Cc3cc4c(cc3C(=O)[C@@H](C)S2)OCO4)cc1)OCC`: the melting point lay in the range of 183 to 184 °C.

With `CCOP(=O)(Cc1ccc(NC(=O)[C@H]2Cc3cc4c(cc3C(=O)[C@H](C)S2)OCO4)cc1)OCC` [Example 1, (2R,4S)-(−)-N-[4-(Diethoxyphosphorylmethyl)phenyl]-1,2,4,5-tetrahydro-4-methyl-7,8-methylenedioxy-5-oxo-3-benzothiepin-2-carboxamide], the “Alkaline Phosphatase Activity” value in data set [1] (test compound 10^−5 M) is on record as 1635.5 ± 169.7 nmol p-nitrophenol/min/well; in data set [1] (test compound 10^−6 M) it was 682.5 ± 123.2 nmol p-nitrophenol/min/well.
